Results reported in patent US8247595B2, “Organic sulfur compound and its use for controlling harmful arthropod” (Sumitomo Chemical Company, Limited, priority 2007, dated 2012).

Key:
Assay type in all cases: in vivo
Culex pipiens pallens = test: Test Example 4: larvae released into treated water, death rate of Culex pipiens pallens; settings: 24 h, active ingredient concentration 3.5 ppm in water, 20 last-instar larvae, after one day
Method: (§1) Preparations of the present compounds (1), (2), (3), (4), (5), (6), (7), (13), (14), (15), (16), (18), (22), (23), (24), (25), (26), (27), (28), (29), (30), (31), (32), (33), (34), (35), (36), (38) and (39) obtained according to Formulation Example 44 were diluted so that the active ingredient concentration was 500 ppm to obtain test solutions.
To 100 mL of ion-exchanged water, 0.7 ml of the test solution was added (active ingredient concentration: 3.5 ppm). Into the solution, 20 last-instar larvae of Culex pipiens pallens were released. After one day, the number of surviving Culex pipiens pallens was examined and the death rate of the pest was calculated.
As a result, in treatments with the present compounds (1), (2), (3), (4), (5), (6), (7), (13), (14), (15), (16), (18), (22), (23), (24), (25), (26), (27), (28), (29), (30), (31), (32), (33), (34), (35), (36), (38) and (39), the death rate of the pest was 90% or more.

Musca domestica = test: Test Example 2: treated filter paper with sucrose bait, death rate of Musca domestica; settings: 500 ppm test solution, 0.7 ml on filter paper, 10 female imagoes, after 24 hours
Method: as §1, with “(7), (8), (9), (10),” for “(7),”, “(13),” for “(13), (14), (15), (16),”, “(18),” for “(18), (22),”, “(35),” for “(35), (36),”
(§2) A filter paper having a diameter of 5.5 cm was spread on the bottom of a polyethylene cup having a diameter of 5.5 cm and 0.7 ml of the test solution was added dropwise onto the filter paper. As a bait 30 mg of sucrose was uniformly placed on the filter paper. Into the polyethylene cup, 10 female imagoes of Musca domestica were released and the cup was sealed with a lid. After 24 hours, the number of surviving Musca domestica was examined and the death rate of the pest was calculated.
As a result, in treatments with the present compounds (1), (2), (3), (4), (5), (6), (7), (8), (9), (10), (13), (18), (23), (24), (25), (26), (27), (28), (29), (30), (31), (32), (33), (34), (35), (38) and (39), the death rate of the pest was 70% or more.

Blattalla germanica = test: Test Example 3: treated filter paper with sucrose bait, death rate of Blattalla germanica; settings: 500 ppm test solution, 0.7 ml on filter paper, 2 male imagoes, after 6 days; for pest or weed control at 500 ppm: 144 h
Method: as §1, with “compounds” for “compounds (1), (2),”, “(7), (9), (10),” for “(7),”, “(13),” for “(13), (14), (15), (16), (18), (22),”, “(35),” for “(35), (36),”
as §2, with “2 male” for “10 female”, “Blattalla germanica” for “Musca domestica”, “6 days,” for “24 hours,”
As a result, in treatments with the present compounds (3), (4), (5), (6), (7), (9), (10), (13), (23), (24), (25), (26), (27), (28), (29), (30), (31), (32), (33), (34), (35), (38) and (39), the death rate of the pest was 100%.

[1] = test system: Haemaphysalis longicornis; test: Test Example 5: treated filter paper pouch, death rate of ticks; settings: 48 h, filter paper treated with 100 mg/m^2, non-blood-sucking nymphal ticks, 10 ticks/group, after 2 days, read-out: death rate of the tick
Method: Five milligrams of any one of the present compounds (19), (23), (24), (27), (28), (29), (32), (33), (35), (38) and (39) was dissolved in 10 mL of acetone. One milliliter of the acetone solution was uniformly applied on one side of a filter paper (TOYO No. 2; 5×10 cm), so that the filter paper was treated with 100 mg/m^2 of the present compound. After drying, the filter paper was folded in two and its edges were clipped to make a pouch. Non-blood-sucking nymphal ticks (Haemaphysalis longicornis, 10 ticks/group) were put into the pouch, and the pouch was sealed with clips. After 2 days, the number of surviving ticks was examined and the death rate was calculated.
As a result, in treatments with the present compounds (19), (23), (24), (27), (28), (29), (32), (33), (35), (38) and (39), the death rate of the tick was 90%.

| SMILES | pest or weed control at 3.5 ppm (Culex pipiens pallens) [%] | pest or weed control at 500 ppm (Musca domestica) [%] | pest or weed control at 500 ppm (Blattalla germanica) [%] | death rate of the pest (Blattalla germanica) [%] | pest or weed control at 100 mg/m2 [1] [%] |
| --- | --- | --- | --- | --- | --- |
| C#CCCCCC(C(=O)OC)S(=O)(=O)CCC(F)(F)F (stereo not drawn) [present compound (1), methyl 2-(3,3,3-trifluoropropylsulfonyl)-7-octynoate] | ≥ 90 | ≥ 70 | – | – | – |
| C#CCCCCC(F)(C(=O)OC)S(=O)(=O)CCC(F)(F)F (stereo not drawn) [present compound (2), methyl 2-fluoro-2-(3,3,3-trifluoropropylsulfonyl)-7-octynoate] | ≥ 90 | ≥ 70 | – | – | – |
| C#CCCCCC(F)(C(N)=O)S(=O)(=O)CCC(F)(F)F (stereo not drawn) [present compound (3), 2-fluoro-2-(3,3,3-trifluoropropylsulfonyl)-7-octynamide] | ≥ 90 | ≥ 70 | 100 | – | – |
| C#CCCCCC(Cl)(C(=O)OC)S(=O)(=O)CCC(F)(F)F (stereo not drawn) [present compound (4), methyl 2-chloro-2-(3,3,3-trifluoropropylsulfonyl)-7-octyonate] | – | – | – | 100 | – |
| C#CCCCCC(Cl)(C(N)=O)S(=O)(=O)CCC(F)(F)F (stereo not drawn) [present compound (5), 2-chloro-2-(3,3,3-trifluoropropylsulfonyl)-7-octynamide] | ≥ 90 | ≥ 70 | 100 | – | – |
| C#CCCCCC(C)(C(=O)OC)S(=O)(=O)CCC(F)(F)F (stereo not drawn) [present compound (6), methyl 2-methyl-2-(3,3,3-trifluoropropylsulfonyl)-7-octyonate] | – | – | – | 100 | – |
| C#CCCCCC(C)(C(N)=O)S(=O)(=O)CCC(F)(F)F (stereo not drawn) [present compound (7), 2-methyl-2-(3,3,3-trifluoropropylsulfonyl)-7-octynamide] | ≥ 90 | ≥ 70 | 100 | – | – |
| C#CCCC(C(=O)OC)S(=O)(=O)CCC(F)(F)F (stereo not drawn) [present compound (8), methyl 2-(3,3,3-trifluoropropylsulfonyl)-5-hexynoate] | – | ≥ 70 | – | – | – |
| C#CCCC(F)(C(=O)OC)S(=O)(=O)CCC(F)(F)F (stereo not drawn) [present compound (9), methyl 2-fluoro-2-(3,3,3-trifluoropropylsulfonyl)-5-hexynoate] | – | ≥ 70 | 100 | – | – |
| C#CCCC(F)(C(N)=O)S(=O)(=O)CCC(F)(F)F (stereo not drawn) [present compound (10), 2-fluoro-2-(3,3,3-trifluoropropylsulfonyl)-5-hexynamide] | – | ≥ 70 | 100 | – | – |
| C#CCCCC(F)(C(N)=O)S(=O)(=O)CCC(F)(F)F (stereo not drawn) [present compound (13), 2-fluoro-2-(3,3,3-trifluoropropylsulfonyl)-6-heptynamide] | ≥ 90 | ≥ 70 | 100 | – | – |
| C#CCCCCCC(C(=O)OC)S(=O)(=O)CCC(F)(F)F (stereo not drawn) [present compound (14), methyl 2-(3,3,3-trifluoropropylsulfonyl)-8-nonynoate] | ≥ 90 | – | – | – | – |
| C#CCCCCCC(F)(C(=O)OC)S(=O)(=O)CCC(F)(F)F (stereo not drawn) [present compound (15), methyl 2-fluoro-2-(3,3,3-trifluoropropylsulfonyl)-8-nonynoate] | ≥ 90 | – | – | – | – |
| C#CCCCCCC(F)(C(N)=O)S(=O)(=O)CCC(F)(F)F (stereo not drawn) [present compound (16), 2-fluoro-2-(3,3,3-trifluoropropylsulfonyl)-8-nonynamide] | ≥ 90 | – | – | – | – |
| COC(=O)C(Cl)(CC=CC(F)(F)F)S(=O)(=O)CCC(F)(F)F (stereo not drawn) [present compound (18), methyl 2-chloro-6,6,6-trifluoro-2-(3,3,3-trifluoropropylsulfonyl)-4-hexenoate] | ≥ 90 | ≥ 70 | – | – | – |
| N#CC(CC=CC(F)(F)F)S(=O)(=O)CCC(F)(F)F (stereo not drawn) [present compound (19), 6,6,6-trifluoro-2-(3,3,3-trifluoropropylsulfonyl)-4-hexenenitrile] | – | – | – | – | 90 |
| C#CCCCCC(C#N)S(=O)(=O)CCC(F)(F)F (stereo not drawn) [present compound (23), 2-(3,3,3-trifluoropropylsulfonyl)-7-octynenitrile] | ≥ 90 | ≥ 70 | 100 | – | 90 |
| C#CCCCCCC(C#N)S(=O)(=O)CCC(F)(F)F (stereo not drawn) [present compound (24), 2-(3,3,3-trifluoropropylsulfonyl)-8-nonynenitrile] | ≥ 90 | ≥ 70 | 100 | – | 90 |
| C#CCCCCCCC(C#N)S(=O)(=O)CCC(F)(F)F (stereo not drawn) [present compound (25), 2-(3,3,3-trifluoropropylsulfonyl)-9-decynenitrile] | ≥ 90 | ≥ 70 | 100 | – | – |
| C#CCCCCC(Cl)(C#N)S(=O)(=O)CCC(F)(F)F (stereo not drawn) [present compound (26), 2-chloro-2-(3,3,3-trifluoropropylsulfonyl)-7-octynenitrile] | ≥ 90 | ≥ 70 | 100 | – | – |
| C#CCC(C)CCC(C#N)S(=O)(=O)CCC(F)(F)F (stereo not drawn) [present compound (27), 5-methyl-2-(3,3,3-trifluoropropylsulfonyl)-7-octynenitrile] | ≥ 90 | ≥ 70 | 100 | – | 90 |
| C#CCC(CC)CCC(C(=O)OC)S(=O)(=O)CCC(F)(F)F (stereo not drawn) [present compound (30), methyl 5-ethyl-2-(3,3,3-trifluoropropylsulfonyl)-7-octynoate] | ≥ 90 | ≥ 70 | 100 | – | – |
| C#CCC(CC)CCC(Cl)(C(=O)OC)S(=O)(=O)CCC(F)(F)F (stereo not drawn) [present compound (31), methyl 2-chloro-5-ethyl-2-(3,3,3-trifluoropropylsulfonyl)-7-octynoate] | ≥ 90 | ≥ 70 | 100 | – | – |
| CC(C#N)(C/C=C/C(F)(F)F)S(=O)(=O)CCC(F)(F)F (stereo not drawn) [present compound (34), 6,6,6-trifluoro-2-methyl-2-(3,3,3-trifluoropropylsulfonyl)-4-hexenenitrile] | ≥ 90 | ≥ 70 | 100 | – | – |
| CCC(=CCC(C(=O)OC)S(=O)(=O)CCC(F)(F)F)C(F)(F)F (stereo not drawn) [present compound (36), methyl 5-trifluoromethyl-2-(3,3,3-trifluoropropylsulfonyl)-4-heptenoate] | ≥ 90 | – | – | – | – |
